One test has as its target FGFR4 V550L kinase (Homo sapiens, UniProt P22455, V550L). In words: Inhibition of FGFR4 V550L mutant kinase activity (ULight-labeled PolyGT, EU665/EU615 reading). The format is biochemical. The note with it: FGFR4 V550L kinase 1 nM, ATP 10 μM, enzymatic reaction 2 hours. How it is done:
(§1) Assay of activity of small molecule compounds on inhibiting FGFR4 kinase and FGFR4 V550L mutant kinase. The assay method was as follows:
(§2) 1) Dilution of Compounds:
(§3) In a 96-well plate a, the compounds were serially diluted 3-fold with DMSO to form 11 concentrations, and the 12th concentration was pure DMSO (as a positive control); In a new 96-well plate b, the above solutions were diluted 25-fold with ultrapure water (DMSO concentration was 4%).
(§4) 2) Transferring Compounds to a 384-Well Plate:
(§5) The above solutions of compounds diluted with ultrapure water in the 96-well plate b were pipetted into corresponding wells of a 384-well plate.
(§6) 3) Adding 4× kinase solution: 2.5 μl of the above 4× kinase solutions were pipetted with a multi-channel pipette into corresponding reaction wells of the 384-well plate, and the mixture was mixed well and pre-reacted at room temperature for 5 minutes.
(§7) 4) Adding 2× substrate/ATP mixture: 5 μl of the above 2× substrate/ATP mixtures were pipetted with a multi-channel pipette into corresponding reaction wells of the 384-well plate.
(§8) 5) Negative control: negative control wells were set up in the 384-well plate by adding 2.5 μl of 4× substrate, 2.5 μl of 4× enzyme solution, 2.5 μl of 1× kinase Assay Buffer and 2.5 μl of ultrapure water containing 4% DMSO to each well.
(§9) 6) Centrifuging, mixing well, and reacting at room temperature in the dark for 2 hours.
(§10) 7) Terminating the Enzymatic Reaction:
(§11) 5 μl of the above 4× stop solutions were pipetted into corresponding wells of the 384-well plate, and the mixture was centrifuged, mixed well, and then reacted at room temperature for 5 minutes.
(§12) 8) Development of the Reaction:
(§13) 5 μl of the above 4× detection solutions were pipetted into corresponding wells of the 384-well plate, and the mixture was centrifuged, mixed well, and then reacted at room temperature for 1 hour.
(§14) 9) The 384-well plate was placed into a plate reader, and the signal was detected using the appropriate program.
(§15) 10) Analysis of IC50: Reading of well=10000*EU665 value/EU615 value Inhibition rate=(reading of positive control well−reading of assay well)/(reading of positive control well−reading of negative control well)*100%
(§16) The corresponding IC50 can be calculated by inputting the drug concentrations and corresponding inhibition rates into GraphPad Prism 5 and processing.
Assay Conditions for Screening FGFR4 V550L Kinase Activity Inhibitory Molecule:
The final concentration of FGFR4 V550L kinase in the reaction system was 1 nM, the final concentration of ATP was 10 μM, the final concentration of substrate ULight™-labeled PolyGT was 100 nM, and the time for enzymatic reaction was 2 hours.
The highest final concentration of the compound in the reaction system was 2.5 μM. After seral 3-fold dilution, there were 11 concentrations in total, and the lowest final concentration was 0.042 nM. The final concentration of DMSO was 1%.

For test [1], the target named is T1, Ba/F3 ETV6-FGFR4-V550L cells (Homo sapiens, UniProt P22455, V550L, cells depend on it).
T1 construct: fused on or other part: N-terminal part of ETV6 (TEL), the oligomerising partner of the fusion; already named as the first entry; P41212 (Transcription factor ETV6)
T1 sequence (P22455 whole entry V550L, the tested form may be a part): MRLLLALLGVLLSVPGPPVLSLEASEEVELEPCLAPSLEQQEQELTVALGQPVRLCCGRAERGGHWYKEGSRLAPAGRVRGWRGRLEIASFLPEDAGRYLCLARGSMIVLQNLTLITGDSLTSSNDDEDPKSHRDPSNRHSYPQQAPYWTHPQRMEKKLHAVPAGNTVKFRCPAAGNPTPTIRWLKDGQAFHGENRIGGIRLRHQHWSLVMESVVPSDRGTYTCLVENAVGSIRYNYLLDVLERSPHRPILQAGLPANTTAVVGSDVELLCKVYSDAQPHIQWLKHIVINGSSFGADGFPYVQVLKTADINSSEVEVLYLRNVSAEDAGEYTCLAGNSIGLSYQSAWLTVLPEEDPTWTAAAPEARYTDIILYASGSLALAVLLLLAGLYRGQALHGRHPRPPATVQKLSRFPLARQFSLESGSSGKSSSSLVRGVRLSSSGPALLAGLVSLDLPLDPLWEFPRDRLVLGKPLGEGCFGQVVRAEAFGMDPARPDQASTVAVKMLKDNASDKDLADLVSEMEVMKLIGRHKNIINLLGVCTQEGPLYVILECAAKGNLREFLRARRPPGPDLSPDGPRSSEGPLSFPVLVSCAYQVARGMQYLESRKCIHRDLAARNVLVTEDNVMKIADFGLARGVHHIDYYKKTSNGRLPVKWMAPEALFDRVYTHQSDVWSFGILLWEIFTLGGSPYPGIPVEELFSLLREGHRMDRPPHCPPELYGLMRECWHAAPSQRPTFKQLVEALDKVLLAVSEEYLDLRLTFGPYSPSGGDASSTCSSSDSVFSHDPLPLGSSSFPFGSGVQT
In words: Inhibition of cell proliferation (CCK-8), Ba/F3 ETV6-FGFR4-V550L cells. The format is cell-based. The note with it: 72 hours of incubation, read-out: Ba/F3 ETV6-FGFR4-V550L IC50. On the procedure:
(§17) Compounds were assayed for inhibiting cell proliferation, and the specific method was as follows: • 1. Cells were cultured to a logarithmic growth phase, pipetted evenly, transferred to a 15 mL centrifuge tube, and centrifuged at 1000 rpm at room temperature for 4 minutes; • 2. The supernatant was discarded; 5 mL of complete medium was added and pipetted evenly; 10 μL of cell suspension was weighed, mixed well with 10 μL of 0.4% trypan blue, and counted under a cell counter; the proportion of living cells was ensured to be above 90%; • 3. The cell suspension was seeded into a 96-well plate (80 μL of cell suspension per well) according to the conditions shown in Table 5; in the outer 36 wells of the 96-well plate, no cells were added but only sterile water was added; only the inner 60 wells were used for cell assay and control; • 4. 5× compound dilution: the compounds were serially diluted 4-fold to give a total of 9 concentrations; 80-fold overall dilution was completed with complete medium, the resulting concentration was 5 times the final drug concentration, and DMSO concentration was 1.25%; • 5. 20 μL of the corresponding compounds with different concentrations were added to each well of assay wells of the 96-well plate; 20 μL of complete medium was added to positive and negative control wells and shaken well; and the final concentration of DMSO in each well was 0.25%; • 6. After 72 hours of incubation, 10 μL of CCK-8 reagent was added to each well and further incubated at 37° C. for 1-2 hours; and the OD value was read at 450 nm; 7. Cell survival rate (%)=[(As−Ab)/(Ac−Ab)]*100% • As: Assay well (medium containing cells, CCK-8, compound) • Ac: Control well (medium containing cells, CCK-8) • Ab: Blank well (medium without cell and compound, CCK-8) • 8. The values were imported into Graphpad Prism 5 software for IC50 calculation.

The target of a further test is FGFR4 kinase (Homo sapiens, UniProt P22455). Nature of the test: Inhibition of FGFR4 kinase activity (ULight-labeled JAK-1 peptide, EU665/EU615 reading). Format: biochemical. The note with it: FGFR4 kinase 3.85 nM, ATP 100 μM, enzymatic reaction 2 hours. On the procedure:
as §1, §2, §3, §4, §5, §6, §7, §8, §9, §10, §11, §12, §13, §14, §15, §16
Assay Conditions for Screening FGFR4 Kinase Activity Inhibitory Molecule:
The final concentration of FGFR4 kinase in the reaction system was 3.85 nM, the final concentration of ATP was 100 μM, the final concentration of substrate ULight™-labeled JAK-1 (Tyr1023) Peptide was 100 nM, and the time for enzymatic reaction was 2 hours.
The highest final concentration of the compound in the reaction system was 2.5 μM. After serial 3-fold dilution, there were 11 concentrations in total, and the lowest final concentration was 0.042 nM. The final concentration of DMSO was 1%.

The next test concerns the target T2, Ba/F3 ETV6-FGFR4 cells (Homo sapiens, UniProt P22455).
T2 construct: fused on or other part: N-terminal part of ETV6 (TEL), the oligomerising partner that makes the FGFR4 kinase constitutively active; P41212 (Transcription factor ETV6)
In words: Inhibition of cell proliferation (CCK-8), Ba/F3 ETV6-FGFR4 cells. Format: cell-based. The settings on record: 72 hours of incubation, read-out: Ba/F3 ETV6-FGFR4 IC50. On the procedure:
as §17

Data on 14 compounds can be found in patent publication US12582654B2, “Cyano-substituted pyridine and cyano-substituted pyrimidine compound and preparation method therefor and application thereof” (BEIJING SCITECH-MQ PHARMACEUTICALS LIMITED, priority 2019, dated 2026).

pIC50: −log10 of the molar value. A value given as a limit tells only on which side of the number the result lay.

Chain of FGFR4 V550L kinase (P22455 22-802 V550L): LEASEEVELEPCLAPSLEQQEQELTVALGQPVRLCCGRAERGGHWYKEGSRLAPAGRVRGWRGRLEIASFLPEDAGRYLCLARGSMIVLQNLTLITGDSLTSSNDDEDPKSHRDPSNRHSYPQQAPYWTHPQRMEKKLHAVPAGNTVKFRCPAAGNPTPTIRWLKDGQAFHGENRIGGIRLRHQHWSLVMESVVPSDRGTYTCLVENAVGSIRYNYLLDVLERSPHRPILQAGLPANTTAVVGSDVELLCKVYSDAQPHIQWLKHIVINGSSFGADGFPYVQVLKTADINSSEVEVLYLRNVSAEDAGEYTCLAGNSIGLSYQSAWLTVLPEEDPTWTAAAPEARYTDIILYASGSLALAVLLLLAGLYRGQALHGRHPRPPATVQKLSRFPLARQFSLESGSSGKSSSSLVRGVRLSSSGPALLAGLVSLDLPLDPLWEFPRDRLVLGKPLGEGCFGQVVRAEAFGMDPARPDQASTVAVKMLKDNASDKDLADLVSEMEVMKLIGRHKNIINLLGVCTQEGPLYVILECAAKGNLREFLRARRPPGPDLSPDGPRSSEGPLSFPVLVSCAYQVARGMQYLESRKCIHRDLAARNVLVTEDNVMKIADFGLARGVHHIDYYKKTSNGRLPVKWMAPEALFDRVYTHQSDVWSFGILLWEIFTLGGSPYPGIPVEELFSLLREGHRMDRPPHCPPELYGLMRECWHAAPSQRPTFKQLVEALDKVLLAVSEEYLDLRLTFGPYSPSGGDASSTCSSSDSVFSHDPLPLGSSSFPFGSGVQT
T2 sequence (P22455 whole entry, change not shown, the tested form may be a part): as the sequence (P22455 whole entry V550L, the tested form may be a part) above, with L550V counted along it
Chain of FGFR4 kinase (P22455 22-802): as the sequence (P22455 22-802 V550L) above, with L529V counted along it

As to `C=CC(=O)Nc1cc(N2CCN(C)CC2)ccc1Nc1ncc(C#N)c(Nc2ccccc2OC(C)C)n1` [Example 1, N-(2-((5-cyano-4-((2-isopropoxyphenyl)amino)pyrimidin-2-yl)amino)-5-(4-methylpiperazin-1-yl)phenyl)acrylamide], the pIC50 was not below 8.00 on FGFR4 V550L kinase and 7.30 to 8.00 at FGFR4 kinase. The GI50 (in test [1]; on Ba/F3 ETV6-FGFR4 cells) was not above 10 nM throughout.

Turning to `C=CC(=O)Nc1cc(N2CCC(N(C)C)CC2)ccc1Nc1ncc(C#N)c(Nc2ccccc2OC(C)C)n1` [Example 2, N-(2-((5-cyano-4-((2-isopropoxyphenyl)amino)pyrimidin-2-yl)amino)-5-(4-(dimethylamino)piperidin-1-yl)phenyl) acrylamide], the pIC50 was not below 8.00 at FGFR4 V550L kinase and 7.30 to 8.00 against FGFR4 kinase. Further, the GI50 (in test [1]; on Ba/F3 ETV6-FGFR4 cells) was not above 10 nM throughout.

`C=CC(=O)Nc1cc(N2CCC(N3CCCC3)CC2)ccc1Nc1ncc(C#N)c(Nc2ccccc2OC(C)C)n1` [Example 3, N-(2-((5-cyano-4-((2-isopropoxyphenyl)amino)pyrimidin-2-yl)amino)-5-(4-(pyrrolidin-1-yl)piperidin-1-yl)phenyl) acrylamide]: the results for the negative-log IC50 (pIC50) at FGFR4 V550L kinase and against FGFR4 kinase were not below 8.00 and 7.30 to 8.00, respectively. Also, the GI50 (in test [1]; on Ba/F3 ETV6-FGFR4 cells) was not above 10 nM in each case.

Turning to `C=CC(=O)Nc1cc(N2CCC(N3CCCCC3)CC2)ccc1Nc1ncc(C#N)c(Nc2ccccc2OC(C)C)n1` [Example 4, N-(5-([1,4′-bipiperidin]-1′-yl)-2-((5-cyano-4-((2-isopropoxyphenyl)amino)pyrimidin-2-yl)amino)phenyl) acrylamide], the results for the negative-log IC50 (pIC50) against FGFR4 V550L kinase and on FGFR4 kinase were not below 8.00 and 7.30 to 8.00, respectively. Besides, the GI50 (in test [1]; at Ba/F3 ETV6-FGFR4 cells) was not above 10 nM throughout.

Consider `C=CC(=O)Nc1cc(N2CCC(N3CCOCC3)CC2)ccc1Nc1ncc(C#N)c(Nc2ccccc2OC(C)C)n1` [Example 5, N-(2-((5-cyano-4-((2-isopropoxyphenyl)amino)pyrimidin-2-yl)amino)-5-(4-morpholinopiperidin-1-yl)phenyl) acrylamide], for which the pIC50 was 7.30 to 8.00 against FGFR4 V550L kinase and 7.00 to 7.30 against FGFR4 kinase. For the same compound, the GI50 (in test [1]; on Ba/F3 ETV6-FGFR4 cells) was not above 10 nM throughout.

With `C=CC(=O)Nc1cc(N2CCC(N3CCN(C)CC3)CC2)ccc1Nc1ncc(C#N)c(Nc2ccccc2OC(C)C)n1` [Example 6, N-(2-((5-cyano-4-((2-isopropoxyphenyl)amino)pyrimidin-2-yl)amino)-5-(4-(4-methylpiperazin-1-yl)piperidin-1-yl)phenyl) acrylamide], the negative logarithm of the IC50 (pIC50) against FGFR4 V550L kinase and at FGFR4 kinase was not below 8.00 in each case. The GI50 (in test [1]; at Ba/F3 ETV6-FGFR4 cells) was not above 10 nM in each case.

With `C=CC(=O)Nc1cc(N2CCN(C)CC2)c(C)cc1Nc1ncc(C#N)c(Nc2ccccc2OC(C)C)n1` [Example 7, N-(2-((5-cyano-4-((2-isopropoxyphenyl)amino)pyrimidin-2-yl)amino)-4-methyl-5-(4-methylpiperazin-1-yl)phenyl) acrylamide], the results for the negative-log IC50 (pIC50) against FGFR4 V550L kinase and at FGFR4 kinase were 7.30 to 8.00 and 7.00 to 7.30, respectively. Further, the GI50 in test [1] is 10 to 50 nM; at Ba/F3 ETV6-FGFR4 cells, not above 10 nM.

For `C=CC(=O)Nc1cc(N2CCC(N(C)C)CC2)c(C)cc1Nc1ncc(C#N)c(Nc2ccccc2OC(C)C)n1` [Example 9, N-(2-((5-cyano-4-((2-isopropoxyphenyl)amino)pyrimidin-2-yl)amino)-5-(4-(dimethylamino)piperidin-1-yl)-4-methylphenyl) acrylamide], the pIC50 at FGFR4 V550L kinase and at FGFR4 kinase was 7.30 to 8.00 throughout.

Consider `C=CC(=O)Nc1cc(N2CCC(N3CCCCC3)CC2)c(C)cc1Nc1ncc(C#N)c(Nc2ccccc2OC(C)C)n1` [Example 11, N-(5-([1,4‘- bipiperidin]-1′-yl)-2-((5-cyano-4-((2-isopropoxyphenyl)amino)pyrimidin-2-yl)amino)-4-methylphenyl) acrylamide], for which the GI50 (in test [1]; at Ba/F3 ETV6-FGFR4 cells) was 10 to 50 nM each time. At FGFR4 kinase, this compound gave a pIC50 of 7.30 to 8.00.

On to `C=CC(=O)Nc1cc(N2CCC(N3CCOCC3)CC2)c(C)cc1Nc1ncc(C#N)c(Nc2ccccc2OC(C)C)n1` [Example 12, N-(2-((5-cyano-4-((2-isopropoxyphenyl)amino)pyrimidin-2-yl)amino)-4-methyl-5-(4-morpholinopiperidin-1-yl)phenyl) acrylamide], for which the pIC50 at FGFR4 V550L kinase and at FGFR4 kinase was 7.30 to 8.00 in each case.

The compound `C=CC(=O)Nc1cc(N2CCN(CC)CC2)ccc1Nc1ncc(C#N)c(Nc2ccc(C#N)cc2OC(C)C)n1` [Example 32, N-(2-((5-cyano-4-((4-cyano-2-isopropoxyphenyl)amino)pyrimidin-2-yl)amino)-5-(4-ethylpiperazin-1-yl)phenyl) acrylamide] had a negative logarithm of the IC50 (pIC50) at FGFR4 V550L kinase of 7.30 to 8.00. Also, the GI50 in test [1] was 10 to 50 nM; at Ba/F3 ETV6-FGFR4 cells, not above 10 nM.

Take `C=CC(=O)Nc1cc(N2CCC(N(C)C)CC2)ccc1Nc1cc(Nc2ccccc2OC(C)C)c(C#N)cn1` [Example 82, N-(2-((5-cyano-4-((2-isopropoxyphenyl)amino)pyridin-2-yl)amino)-5-(4-(dimethylamino)piperidin-1-yl)phenyl)acrylamide]: the pIC50 against FGFR4 kinase was 7.30 to 8.00.

With `C=CC(=O)Nc1cc(N2CCC(N3CCN(C)CC3)CC2)ccc1Nc1cc(Nc2ccccc2OC(C)C)c(C#N)cn1` [Example 83, N-(2-((5-cyano-4-((2-isopropoxyphenyl)amino)pyridin-2-yl)amino)-5-(4-(4-methylpiperazin-1-yl)piperidin-1-yl)phenyl)acrylamide], the pIC50 at FGFR4 kinase was 7.30 to 8.00.

On FGFR4 kinase, `C=CC(=O)Nc1cc(N2CCN(CC)CC2)ccc1Nc1cc(Nc2ccccc2OC(C)C)c(C#N)cn1` [Example 84, N-(2-((5-cyano-4-((2-isopropoxyphenyl)amino)pyridin-2-yl)amino)-5-(4-ethylpiperazin-1-yl)phenyl)acrylamide] had a negative-log IC50 (pIC50) of 7.30 to 8.00.
